Laboratory results from article PMC10330721, “Chemo-enzymatic synthesis and biological activity evaluation of propenylbenzene derivatives” (Frontiers in Microbiology, 2023).
Converted amounts (≈) assume the structure as drawn. Read-outs that look alike come from different tables or passages of the source.

Columns and labels:
RBCs membrane = assay: Fluorescence spectroscopy of the RBCs membrane (DPH probe anisotropy); type: cell-based, human; details: for Change in DPH anisotropy / RBCs membrane fluidity (in words): RBCs, 20, 60 and 100 μM; for Fluorescence anisotropy of the DPH probe: membranes of RBCs, 37 °C
Description: Using the DPH probe, the anisotropy values of cell membranes of RBCs modified with the test compounds were measured. RBCs for this analysis were prepared according to the method described in subsection 2.5.3. Then, the DPH probe was added to RBCs with a haematocrit of 0.2%. The final concentration of the probe in the sample was 1.3 μM. The mixture was incubated protected from light at 37°C for 30 min. Then, the compounds dissolved in ethanol were added. The compounds were tested at 20, 60, and 100 μM concentrations. Samples with compounds and control samples with alcohol of the appropriate concentration were incubated at 37°C for 1 h. Measurements in triplicate were made in quartz cuvettes using a CARY Eclipse fluorimeter (Varian, San Diego, CA, United States) at 37°C. The excitation wavelength for the DPH probe is λexc = 360 nm and the emission wavelength is λem = 426 nm.

[1] = Haemolytic activity assay; type: cell-based; details: human red blood cells (RBCs) from healthy donors, 37°C, read-out: Percentage of haemolysis
Description: This test is based on comparison of the cytotoxicity of all tested compounds in human red blood cells (RBCs) with that in a control group. RBCs for this method were obtained from a blood center from examined and healthy donors. The compounds were tested at 10, 20, 40, 60, 80, and 100 μM concentrations. The control sample contained only ethanol in the same volume as the test samples. […] The samples were incubated at 37°C for 1 h. Then, the absorbance at 540 nm was measured using a UV–Vis spectrophotometer (Specord 40, Analytik Jena, Jena, Germany). The haemolytic activity of the compounds was determined as the ratio of the absorbance of haemoglobin in the test samples to that in completely haemolyzed cells multiplied by 100%.

MG63 cells = assay: Resazurin-based viability assay; type: cell-based, human; details: for Effect on MG63 proliferation / viability (in words): 24 h, 1, 50 and 200 μg/mL
Description: (§1) HepG2 cells were cultured in Dulbecco’s modified Eagle’s Medium - low glucose (Merck) supplemented with 10% foetal bovine serum (FBS) (Merck). Caco-2 cells were cultured in Dulbecco’s modified Eagle’s medium - high glucose (Merck) supplemented with 10% FBS, 2% HEPES buffer (Thermo Fisher Scientific, Warszawa, Poland), 1% Penicillin–Streptomycin-Amphotericin B Solution (100×, Merck), 1% MEM solution (100×, Thermo Fisher Scientific), and 1% Gentamycin Solution (10 mg/mL, Merck). MG-63 cells were cultured in Minimum Essential Medium (Merck) supplemented with 10% FBS. All cells were cultured in an atmosphere of 5% CO2 at 37°C.
The tested compounds were dissolved in ethanol at 10 mg/mL. The concentrations were then adjusted to 1, 50, and 200 μg/mL in culture medium. Four controls were prepared: no ethanol added, and 0.01, 0.5, and 2% EtOH. The cells were treated with the compounds for 24 h. […] The culture medium was replaced with medium containing 10% resazurin dye. The cells were incubated at 37°C in an atmosphere of 5% CO2 for 2 h. Absorbance levels were measured spectrophotometrically (Epoch) at a wavelengths of 600 nm for resazurin and 690 nm as a reference.

C. albicans strains = assay: Fungistatic activity assay, broth microdilution, values given over several strains; type: cell-based, Candida albicans; details: Candida albicans
Description: (§2) Fungistatic activity was determined using Candida albicans ATCC 90028 from the American Type Culture Collection (ATCC, Manassas, VA, United States), and clinical isolates, C. albicans 636/20, C. albicans 595/20, and C. albicans 38 obtained from Wrocław Medical University, Wrocław, Poland.
(§3) All compounds were tested for biological activity against C. albicans ATTC 90028, C. albicans 636/20, C. albicans 595/20, and C. albicans 38 using the broth microdilution method. YPD medium (20 g glucose, 20 g Bacto Peptone, 10 g yeast extract, and 1 L of distilled water, pH 6.5) was used for the tests. The compound solutions were prepared in DMSO and diluted in YPD to obtain final concentrations in the range of 10–250 μg/mL. One hundred microlitres of each solution was pipetted into the wells of a 96-well microtiter plate. The inoculum was standardized to 0.5 McFarland standard and then diluted to obtain a final suspension with a cell density of 0.5–2.5 × 10^3 CFU/mL. The inoculum size was 100 μL. The positive control comprised DMSO added in the same concentration as the tested compounds in the inoculum, whereas the negative control consisted of DMSO diluted in the broth without the addition of inoculum. The microtiter plates were incubated in a Biosan PST-60 HL Plate Shaker-Thermostat (Riga, Latvia) at 35°C under shaking at 1,000 rpm for 24 h.

C. albicans 595/20 = assay: Fungistatic activity assay, broth microdilution; type: cell-based; details: Candida albicans; C. albicans 595/20, 24 h, 35°C, tested 10–250 μg/mL; read-out: MIC50
Description: as §2, §3

HepG2 cells = assay: Resazurin-based viability assay; type: cell-based, human
Description: as §1, with “The human HepG2 and Caco-2 cell lines were obtained from the American Type Culture Collection (HB-8065™ and HTB-37™) and the MG-63 cell line was obtained from the European Collection of Authenticated Cell Cultures (Merck, Poznań, Poland). HepG2” for “HepG2”
(§4) HepG2, Caco-2, and […] were seeded in 96-well plates at 20,000 cells per well, and MG-63 cells at 10,000 cells per well, as described previously ([Marycz et al., 2012]; [Kornicka et al., 2017]). The tested compounds were dissolved in ethanol at 10 mg/mL. The concentrations were then adjusted to 1, 50, and 200 μg/mL in culture medium. Four controls were prepared: no ethanol added, and 0.01, 0.5, and 2% EtOH. The cells were treated with the compounds for 24 h. Then, cell viability was evaluated using the resazurin-based assay kit (TOX8), as described previously ([Grzesiak et al., 2011]; [Marycz et al., 2018]). The culture medium was replaced with medium containing 10% resazurin dye. The cells were incubated at 37°C in an atmosphere of 5% CO2 for 2 h. Absorbance levels were measured spectrophotometrically (Epoch) at a wavelengths of 600 nm for resazurin and 690 nm as a reference.

Caco-2 cells = assay: Resazurin-based viability assay; type: cell-based, human; details: for Effect on Caco-2 proliferation / viability (in words): 24 h, 1, 50 and 200 μg/mL
Description: as §1, with “The human HepG2 and Caco-2 cell lines were obtained from the American Type Culture Collection (HB-8065™ and HTB-37™) and the MG-63 cell line was obtained from the European Collection of Authenticated Cell Cultures (Merck, Poznań, Poland). HepG2” for “HepG2”
as §4

C. albicans ATTC18804 = test system: C. albicans ATTC18804; parameters: method as in Kubo et al., 1993; details: C. albicans ATTC18804 ref Kubo et al., 1993; cited from earlier work

SMILES | Change in DPH anisotropy / RBCs membrane fluidity (in words) (RBCs membrane) | Fluorescence anisotropy of the DPH probe (RBCs membrane; 20 µM) | Fluorescence anisotropy of the DPH probe (RBCs membrane; 60 µM) | Fluorescence anisotropy of the DPH probe (RBCs membrane; 100 µM) | hemolysis at 1 h, 10 µM [1] [%] | hemolysis at 1 h, 20 µM [1] [%] | hemolysis at 1 h, 40 µM [1] [%] | hemolysis at 1 h, 60 µM [1] [%] | hemolysis at 1 h, 80 µM [1] [%] | hemolysis at 1 h, 100 µM [1] [%] | Effect on MG63 proliferation / viability (in words) (MG63 cells) | Effect on Caco-2 proliferation / viability (in words) (Caco-2 cells) | also measured
COc1ccc(C(=O)C(C)O)cc1OC (stereo not shown) [4c, 1-(3,4-dimethoxyphenyl)-2-hydroxypropan-1-one] | a decrease in anisotropy | 0.257 ± 0.014 | 0.243 ± 0.019 | 0.263 ± 0.008 | 1.483 ± 0.007 | 1.93 ± 0.228 | 2.1 ± 0.395 | 1.77 ± 0.342 | 2.02 ± 0.047 | 2.445 ± 0.013 | promoted MGC63 proliferation | – | –
COc1ccc(C(O)C(C)O)cc1 (stereo not shown) [3b, 1-(4-methoxyphenyl)propane-1,2-diol] | an increase in anisotropy at lower concentrations and a decrease at higher concentrations | 0.272 ± 0.019 | 0.249 ± 0.083 | 0.262 ± 0.056 | 2.45 ± 0.509 | 2.98 ± 0.153 | 1.9 ± 0.209 | 2.29 ± 0.635 | 2.4 ± 0.209 | 2.6 ± 0.265 | suppressed the proliferation | strongest inhibition | MIC50 (C. albicans strains; C. albicans 595/20, 636/20 and 38, read-out: MIC50 (over three strains)): 47 to 76 µg/mL (≈ 258 to 417 µM); MIC50 (C. albicans 595/20): 47 µg/mL (≈ 258 µM); Effect on HepG2 proliferation / viability (in words) (HepG2 cells; 24 h, 1, 50 and 200 μg/mL): significantly increased the proliferative potential
COc1ccc(C(O)C(C)O)cc1OC (stereo not shown) [4b, 1-(3,4-dimethoxyphenyl)propane-1,2-diol] | increase in anisotropy | 0.289 ± 0.004 | 0.228 ± 0.095 | 0.290 ± 0.003 | 1.64 ± 0.127 | 1.52 ± 0.375 | 1.42 ± 0.074 | 1.2 ± 0.395 | 1.19 ± 0.04 | 2.06 ± 0.536 | – | strongest inhibition | MIC50 (C. albicans strains; C. albicans 636/20, 595/20, 38 and ATTC90028, read-out: MIC50 (over all tested strains)): 37 to 63 µg/mL (≈ 174 to 297 µM)
COc1cc(C(O)C(C)O)ccc1O (stereo not shown) [5b, 1-(4-hydroxy-3-methoxyphenyl)propane-1,2-diol] | – | 0.268 ± 0.025 | 0.277 ± 0.003 | 0.272 ± 0.058 | 1.27 ± 0.094 | 1.55 ± 0.101 | 1.52 ± 0.181 | 1.62 ± 0.174 | 2.58 ± 0.288 | 1.98 ± 0.308 | suppressed the proliferation | – | Effect on HepG2 proliferative activity (in words) (HepG2 cells; 24 h, 1 μg/mL): induced the proliferative activity; Effect on Caco-2 proliferative activity (in words) (Caco-2 cells; 24 h, 1 μg/mL): induced the proliferative activity; Effect on MG63 proliferative activity (in words) (MG63 cells; 24 h, 1 μg/mL): induced the proliferative activity; Effect on MG63 proliferative activity / viability (in words) (MG63 cells; 24 h, 50 μg/mL): significantly increased cell viability
CC=Cc1ccc(OC)c(OC)c1 [4a, 1,2-dimethoxy-4-prop-1-en-1-yl benzene] | – | 0.264 ± 0.004 | 0.261 ± 0.008 | 0.269 ± 0.007 | 1.76 ± 0.152 | 1.48 ± 0.173 | 1.67 ± 0.195 | 1.58 ± 0.18 | 2.48 ± 0.152 | 1.79 ± 0.159 | promoted MGC63 proliferation | – | MIC50 (C. albicans strains; read-out: MIC50 (over all tested strains)): 39 to 67 µg/mL (≈ 219 to 376 µM); MIC (C. albicans ATTC18804): 400 µg/mL (≈ 2240 µM)
